According to patent US20050256176A1, “Sulphonamide derivatives and their use as tace inhibitors” (priority 2002, published 2005):

Molecular target: T1, proTNF-α convertase enzyme (TACE) (Homo sapiens, UniProt P78536)
T1 construct: a partially purified, isolated enzyme assay, the enzyme being obtained from the membranes of THP-1; endogenous in cells; host or cells: THP-1 cell membranes, partially purified as in Mohler et al. (1994) Nature 370:218-220
Experiment: Isolated enzyme assay, proTNF-α convertase (TACE), fluorescent peptide substrate
Format: biochemical
Details: partially purified enzyme from membranes of THP-1; 26° C. for 4 hours; read-out: concentration giving 50% inhibition of TACE
Description: Recombinant human proMMP13 may be expressed and purified as described by Knauper et al. [V. Knauper et al., (1996) […] 271:1544-1550 (1996)]. […] Activity is determined by measuring the fluorescence at λex 328 nm and λem 393 nm. Percent inhibition is calculated as follows: % Inhibition is equal to the [Fluorescenceplus inhibitor−Fluorescencebackground] divided by the [Fluorescenceminus inhibitor−Fluorescencebackground].
The ability of the compounds to inhibit proTNF-α convertase enzyme (TACE) may be assessed using a partially purified, isolated enzyme assay, the enzyme being obtained from the membranes of THP-1 as described by K. M. Mohler et al., (1994) Nature 370:218-220. The purified enzyme activity and inhibition thereof is determined by incubating the partially purified enzyme in the presence or absence of test compounds using the substrate 4′,5′-Dimethoxy-fluoresceinyl Ser.Pro.Leu.Ala.Gln.Ala.Val.Arg.Ser.Ser.Ser.Arg.Cys(4-(3-succinimid-1-yl)-fluorescein)-NH2 in assay buffer (50 mM Tris HCl, pH 7.4 containing 0.1% (w/v) Triton X-100 and 2 mM CaCl2), at 26° C. for 4 hours. The amount of inhibition is determined as for MMP13 except λex 485 nm and λem 538 nm were used. […]

T1 sequence (P78536 215-824): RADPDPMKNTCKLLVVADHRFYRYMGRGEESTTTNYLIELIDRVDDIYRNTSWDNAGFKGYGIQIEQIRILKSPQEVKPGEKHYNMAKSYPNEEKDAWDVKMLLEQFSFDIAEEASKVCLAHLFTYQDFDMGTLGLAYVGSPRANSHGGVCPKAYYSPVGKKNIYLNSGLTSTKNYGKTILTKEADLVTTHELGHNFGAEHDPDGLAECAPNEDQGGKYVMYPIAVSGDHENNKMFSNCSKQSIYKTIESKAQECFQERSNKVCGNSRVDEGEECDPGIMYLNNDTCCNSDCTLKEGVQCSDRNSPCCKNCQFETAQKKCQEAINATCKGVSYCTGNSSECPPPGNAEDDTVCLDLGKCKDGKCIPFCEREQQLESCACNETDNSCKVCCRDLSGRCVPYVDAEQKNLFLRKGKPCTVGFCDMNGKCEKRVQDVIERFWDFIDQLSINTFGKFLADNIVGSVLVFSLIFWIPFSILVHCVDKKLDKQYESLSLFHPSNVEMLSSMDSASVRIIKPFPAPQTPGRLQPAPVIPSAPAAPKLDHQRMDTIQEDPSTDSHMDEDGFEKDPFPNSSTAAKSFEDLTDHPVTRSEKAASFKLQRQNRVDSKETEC

Row | IC50 [nM] | Structure (SMILES)
1 | 71 | Cc1cc(COc2ccc(NS(=O)(=O)CC3(C)NC(=O)NC3=O)cc2)c2ccccc2n1 (centres unmarked) [Example 1A, 1-(4-methyl-2,5-dioxoimidazolidin-4-yl)-N-{4-[(2-methylquinolin-4-yl)methoxy]phenyl}methanesulphonamide]
2 | 37 | CCC1(CS(=O)(=O)Nc2ccc(OCc3cc(C)nc4ccccc34)cc2)NC(=O)NC1=O (centres unmarked) [Example 2A, 1-(4-ethyl-2,5-dioxoimidazolidin-4-yl)-N-{4-[(2-methylquinolin-4-yl)methoxy]phenyl}methanesulphonamide]
